The text below walks through data of US20030157516A1, “G protein coupled receptor” (priority 2000, published 2003).

The target in assay [1] is T1, adenine binding rat receptor (Rattus norvegicus, UniProt Q7TN49).
T1 construct: expressed in transfected cells; host or cells: CHO cells, transient, lipofectamine PLUS
T1 sequence (Q7TN49 1-304): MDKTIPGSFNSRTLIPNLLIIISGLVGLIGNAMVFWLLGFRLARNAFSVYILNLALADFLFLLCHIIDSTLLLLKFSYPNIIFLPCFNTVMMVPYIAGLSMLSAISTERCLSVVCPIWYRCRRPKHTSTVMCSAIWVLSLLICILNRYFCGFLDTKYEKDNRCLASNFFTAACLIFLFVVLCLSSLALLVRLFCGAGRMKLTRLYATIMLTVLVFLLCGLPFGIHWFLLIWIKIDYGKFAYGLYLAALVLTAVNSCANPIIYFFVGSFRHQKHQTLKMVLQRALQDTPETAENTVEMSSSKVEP
Nature of the assay: [35S]GTPγS binding on CHO membranes permanently transfected. It is filed as biochemical. The note with it: for % stimulation: above basal. As for the experimental part: The lipofectamine PLUS method was also used for permanent transfection of CHO cells with slight modifications. One day after the transfection, the medium was replaced with selection medium which was replaced every 2 to 3 days. The cells were grown till colonies appeared (between day 8 and 10) and split to a 175 cm^2 culture flask for further culture and experiments. Monoclonal cell lines were prepared by limited dilution seeding in 96 well plates.
a) Methods—Determination of [^35S ]GTPγS binding to the G-proteins was carried out according to a modified procedure of Lazareno (Methods Mol. Biol., 83:107-116, 1997). These experiments were performed for a first functional evaluation of the receptor on the level of a membrane preparation.
The assay mixture contained 10 and 35 μg of membrane protein for the transfected and wild type CHO cells, respectively.
For testing agonistic activity, 175 μl of diluted membranes was pre-incubated in the buffer described above together with 25 μl of buffer and 25 μl of varying concentrations of the compound in a total volume of 225 μl. After a 20 minute pre-incubation period at 30° C., 25 μl of [^35S]GTPγS was added to a final concentration of 0.25 nM and the assay mixtures were further incubated for 20 minutes at 30° C. Bound and free [^35S]GTPγS were separated by rapid filtration over an UniFilter™-96, GF/B™ under reduced pressure using Filtermate 196 filtration (Packard Company (Netherlands). The amount of bound radioactivity on the filter unit was determined after drying of the filters and scintillant addition (Microscint-O; Packard Company) by liquid scintillation counting.
Basal [^35S]GTPγS binding was measured in absence of compounds. Stimulation by agonist was calculated as the percentage increase above basal levels. The sigmoid agonist concentration-response curves were analyzed by non-linear regression using the GraphPad Prism program. The different concentration points were run in duplicates and the reported data were retrieved from independent experiments.
The first functional characterization of the monoclonal cell lines was performed in [^35S]GTPγS binding experiments. The maximum stimulation of [^35S] GTPγS binding by adenine for each of the 4 selected clones was much higher ([…]) than the that found in the transient transfections confirming the expected better coupling in permanent cell lines (see table 5).

Assay [2] deals with T1, adenine binding rat receptor. Nature of the assay: cAMP measurements on CHO cells permanently transfected (clone 28). Format: cell-based. How it is done:
(§1) For permanently transfected CHO cells, cAMP measurements were performed using the indirect RIA kit from NEN (Belgium).
(§2) a) Methods: Two days before the experiment the cells were seeded out in a 96 well plate at a density required for approximately 90% confluence at the day of the experiment. After removal of the growth medium, the cells were washed twice with a controlled salt solution (CSS) containing 25 mM Tris-HCl, pH 7.4, 120 mM NaCl, 5.4 mM KCl, 0.8 mM MgCl2, 1.8 mM CaCl2, 15 mM glucose and 15 mg/l phenol red, with an addition of a phosphodiesterase inhibitor IBMX (3-isobutyl-1-methylxanthine) in a concentration of 1 mM and […]. Basal cAMP levels were determined in CSS containing these additives and maximally stimulated cAMP levels were determined in the presence of 50 μM forskolin. For testing agonistic activity, the compounds were incubated with the cells for 20 minutes at 37° C. The reaction was stopped by addition of ice cold HClO4 (1N) and stored at −20° C. After thawing the mixtures were neutralized with an equivalent amount of phosphate buffered KOH, left at 4° C. during 30 minutes to allow the salts to precipitate and centrifuged at 2,000 RPM for 5 minutes at 4° C.
(§3) For the quantitative determination of the cAMP levels, a 96-well Flashplate radioimmunoassay kit from NEN was used, according to the protocol of the supplier. The sigmoid concentration response curves (duplicate points) were analyzed using the GraphPad Prism program.

For assay [3], the system named is wild type CHO cells. Nature of the assay: cAMP measurements on wild type CHO cells. Format: cell-based. To be noted: wild type CHO cells. As for the experimental part:
as §1, §2, §3

Assay [4] relates to wild type CHO cells. Nature of the assay: Intracellular Ca2+ measurements (FLIPR) on wild type CHO cells. Format: cell-based.

In the case of `Nc1ncnc2nc[nH]c12` [Adenine, adenine], the EC50 is 62 nM in assay [1] (4 selected clones, read-out: mean EC50); 64.6 nM in assay [1] (Clone 26 (MP1), read-out: pEC50 (converted)); 49 nM in assay [1] (Clone 28 (MP9), read-out: pEC50 (converted)); 79.4 nM in assay [1] (Clone 29 (MP9), read-out: pEC50 (converted)); 57.5 nM in assay [1] (Clone 30 (MP9), read-out: pEC50 (converted)); 3 nM in assay [2] (after Na-butyrate induction, read-out: EC50). For the same molecule, the EC50 in assay [2] (transfected cells (clone 28), 0.5% hiFCS, Na-butyrate induction, read-out: pEC50 (converted)) is 2.88 nM; in assay [2] (transfected cells (clone 28), 10% hiFCS, Na-butyrate induction, read-out: pEC50 (converted)), 2.95 nM. Also, the “% stimulation” value in assay [1] (Clone 26 (MP1)) is listed as 632%; in assay [1] (Clone 28 (MP9)), 657%; in assay [1] (Clone 29 (MP9)), 527%; in assay [1] (Clone 30 (MP9)), 534%. The cAMP response entry in assay [3] was “did not show any response”. Also, the “intracellular Ca2+ response” value in assay [4] is given as “did not show any response”.
